Biological target: T1, glucocorticoid receptor (GR) (Homo sapiens, UniProt P04150)
T1 sequence (P04150 521-777): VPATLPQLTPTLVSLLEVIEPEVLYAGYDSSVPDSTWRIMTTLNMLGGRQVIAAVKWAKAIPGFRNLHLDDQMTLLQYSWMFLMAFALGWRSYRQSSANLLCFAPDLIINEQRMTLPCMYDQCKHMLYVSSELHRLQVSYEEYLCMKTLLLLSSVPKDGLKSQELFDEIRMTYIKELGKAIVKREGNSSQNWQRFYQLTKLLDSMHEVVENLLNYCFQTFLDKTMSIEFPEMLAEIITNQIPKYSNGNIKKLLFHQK
Test: Assay for agonist activity on glucocorticoid receptor (luciferase reporter, HEK293 cells transfected with pBIND-GR plasmid)
Format: cell-based
Settings: HEK293 cells transfected with pBIND-GR, luciferase signal; read-out: GR agonist EC50
Procedure: Pharmacological Example 1: Assay for Agonist Activity on Glucocorticoid Receptor (GR)
The test compounds were subjected to a 4-fold serial dilution starting from an initial concentration of 10 µ M, generating a 10-point concentration gradient with duplicate wells for each concentration. The blank control consisted of 0.1 % DMSO.
The HEK293 stable cell line […] transfected with glucocorticoid receptor (GR) (ICE Bioscience, Lot No. TYP-20220519) was cultured in Dulbecco's Modified Eagle Medium (DMEM) supplemented with 10% fetal bovine serum (FBS) and 200 µ g/ml Hygromycin B in a cell incubator containing 5% CO2 at 37 °C. The spent medium was aspirated and the cells were washed once with phosphate-buffered saline (PBS). Then, 1 mL of TrypLE™ Express solution was added, and the cells were incubated at 37 °C for approximately 2 min. When the cells detached from the bottom of the cell culture dish, approximately 5 mL of pre-warmed complete medium at 37 °C was added. The cell suspension was gently pipetted with a pipette to dissociate clumped cells. The cell suspension was transferred to a sterile centrifuge tube and centrifuged at 1000 rpm for 5 min to pellet the cells for experiments or subculture.
HEK293 cells were digested and seeded into 6-cm culture dishes. The pBIND-GR plasmid was transfected into the HEK293 cells using a transfection reagent, resulting in HEK293 cells successfully transfected with the pBIND-GR plasmid. The cells were resuspended in phenol red-free DMEM medium containing 5% charcoal-stripped serum, counted, and then seeded into 96-well plates. The test compounds were added, and the plates were then incubated in an incubator. The luminescence signal values were measured using a multimode microplate reader following the instructions of the luciferase assay kit. The EC50 values of each test compound were calculated using the nonlinear fitting formula with GraphPad Prism 8.0 software.

Structure (SMILES)	EC50
C[C@]12C=CC(=O)C=C1[C@@H](F)C[C@H]1[C@@H]3C[C@H]4OC(C5CCN(C(=O)C6COC(=O)C6)CC5)O[C@@]4(C(=O)CO)[C@@]3(C)C[C@H](O)[C@@]12F (stereo partly drawn) [Compound 1, (2S,6aS,6bR,7S,8aS,8bS,11aR,12aS,12bS)-2,6b-Difluoro-7-hydroxy-8b-(2-hydroxyacetyl)-6a,8a-dimethyl-10-(1-(5-oxotetrahydrofuran-3-carbonyl)piperidin-4-yl)-1,2,6a,6b,7,8,8a,8b,11a,12,12a,1 2b-dodecahydro-4H-naphtho[2',1':4,5]indeno[1,2-d][1,3]dioxol-4-one]	20.3 nM
C[C@]12C=CC(=O)C=C1[C@@H](F)C[C@H]1[C@@H]3C[C@H]4OC(C5CCC(NC(=O)C6COC(=O)C6)CC5)O[C@@]4(C(=O)CO)[C@@]3(C)C[C@H](O)[C@@]12F (stereo partly drawn) [Compound 3, N-(4-((2S,6aS,6bR,7S,8aS,8bS,11aR,12aS,12bS)-2,6b-Difluoro-7-hydroxy-8b-(2-hydroxyacetyl)-6a,8a-dimethyl-4-oxo-2,4,6a,6b,7,8,8a,8b,11a,12,12a,12b-dodecahydro-1H-naphtho[2',1':4,5]indeno[1,2-d][1,3]dioxol-10-yl)cyclohexyl)-5-oxotetrahydrofuran-3-carboxamide]	17.6 nM
C[C@]12C=CC(=O)C=C1[C@@H](F)C[C@H]1[C@@H]3C[C@H]4OC(c5ccc(NC(=O)C6COC(=O)C6)cc5)O[C@@]4(C(=O)CO)[C@@]3(C)C[C@H](O)[C@@]12F (stereo partly drawn) [Compound 2, N-(4-((2S,6aS,6bR,7S,8aS,8bS,11aR,12aS,12bS)-2,6b-Difluoro-7-hydroxy-8b-(2-hydroxyacetyl)-6a,8a-dimethyl-4-oxo-2,4,6a,6b,7,8,8a,8b,11a,12,12a,12b-dodecahydro-1H-naphtho[2',1':4,5]indeno[1,2-d][1,3]dioxol-10-yl)phenyl)-5-oxotetrahydrofuran-3-carboxamide]	12.2 nM
C[C@]12C=CC(=O)C=C1CC[C@@H]1[C@@H]2[C@@H](O)C[C@@]2(C)[C@H]1C[C@H]1OC(c3ccc(CSC4CCOC4=O)cc3)O[C@]12C(=O)CO (stereo partly drawn) [Compound 29, (6aR,6bS, 7S,8aS,8bS,11aR,12aS,12bS)-7-Hydroxy-8b-(2-hydroxyacetyl)-6a,8a-dimethyl-10-(4-(( (2-oxotetrahydrofuran-3-yl)thio)methyl)phenyl)-1,2,6a,6b,7,8,8a,8b,11a,12,12a,12b-dodecahydro-4H-naphtho[2',1':4,5]indeno[1,2-d][1,3]dioxol-4-one]	3.66 nM
C[C@]12C=CC(=O)C=C1CC[C@@H]1[C@@H]2[C@@H](O)C[C@@]2(C)[C@H]1C[C@H]1OC(c3ccc(CNC4COC(=O)C4)cc3)O[C@]12C(=O)CO (stereo partly drawn) [Compound 33, (6aR,6bS, 7S,8aS,8bS,11aR,12aS,12bS)-7-Hydroxy-8b-(2-hydroxyacetyl)-6a,8a-dimethyl-10-(4-(( (5-oxotetrahydrofuran-3-yl)amino)methyl)phenyl)-1,2,6a,6b,7,8,8a,8b,11a,12,12a,12b-dodecahydr o-4H-naphtho[2',1':4,5]indeno[1,2-d][1,3]dioxol-4-one]	4.38 nM
C[C@]12C=CC(=O)C=C1CC[C@H]1[C@@H]3C[C@H]4OC(c5cnc(CSC6CCOC6=O)nc5)O[C@@]4(C(=O)CO)[C@@]3(C)C[C@H](O)[C@@]12Cl (stereo partly drawn) [Compound 54, (6aS,6bR,7S,8aS,8bS,11aR,12aS,12bS)-6b-Chloro-7-hydroxy-8b-(2-hydroxyacetyl)-6a,8a-dimethyl-10-(2-(((2-oxotetrahydrofuran-3-yl)thio)methyl)pyrimidin-5-yl)-1,2,6a,6b,7,8,8a,8b,11a,12,12a, 12b-dodecahydro-4H-naphtho[2',1':4,5]indeno[1,2-d][1,3]dioxol-4-one]	5.64 nM
